The values that follow come from ChEMBL document CHEMBL5724914, “Linking interpersonal differences in gut microbiota composition and drug biotransformation activity” (2024).

The conditions of data set [1]: human gut metagenome, 24 h, 2 µM.
The nature of data set [2]: The drug is tested on Z-007 corresponding to rat gut metagenome with ENA study accession number: PRJEB37062 and ENA sample accession number: ERS12561807 for biotransformation under anaerobic condition. The drug concentrations were measured over 9 timepoints collected between 0 and 24 hours of incubation by liquid-chromatography-coupled mass spectrometry (LC–MS). The following applies: 2 µM.

For data set [3] the following is noted: human gut metagenome, 24 h, 2 µM. This is another data set of the same source.
The nature of data set [4]: The drug is tested on Z-009 corresponding to pig gut metagenome with ENA study accession number: PRJEB37062 and ENA sample accession number: ERS12561809 for biotransformation under anaerobic condition. The drug concentrations were measured over 9 timepoints collected between 0 and 24 hours of incubation by liquid-chromatography-coupled mass spectrometry (LC–MS). The following applies: 2 µM.

Data set [5] in a line: The drug is tested on Z-008 corresponding to metagenome with ENA study accession number: PRJEB37062 and ENA sample accession number: ERS12561808 for biotransformation under anaerobic condition. The drug concentrations were measured over 9 timepoints collected between 0 and 24 hours of incubation by liquid-chromatography-coupled mass spectrometry (LC–MS). The following applies: 2 µM.

A short description of data set [6]: The drug is tested on Z-005 corresponding to metagenome with ENA study accession number: PRJEB37062 and ENA sample accession number: ERS12561805 for biotransformation under anaerobic condition. The drug concentrations were measured over 9 timepoints collected between 0 and 24 hours of incubation by liquid-chromatography-coupled mass spectrometry (LC–MS). The following applies: 2 µM.

The nature of data set [7]: The drug is tested on Z-016 corresponding to mouse gut metagenome with ENA study accession number: PRJEB37062 and ENA sample accession number: ERS12561815 for biotransformation under anaerobic condition. The drug concentrations were measured over 9 timepoints collected between 0 and 24 hours of incubation by liquid-chromatography-coupled mass spectrometry (LC–MS). The note with it: 2 µM.

A short description of data set [8]: The drug is tested on WLS-090 corresponding to human gut metagenome with ENA study accession number: PRJEB37062 and ENA sample accession number: ERS12561753 for biotransformation under anaerobic condition. The drug concentrations were measured over 9 timepoints collected between 0 and 24 hours of incubation by liquid-chromatography-coupled mass spectrometry (LC–MS). The note with it: 2 µM.

The conditions of data set [9]: human gut metagenome, 24 h, 2 µM. The source holds these as a separate data set.
The conditions of data set [10]: human gut metagenome, 24 h, 2 µM. The source holds these as a separate data set.
For data set [11] the following is noted: human gut metagenome, 24 h, 2 µM. The source holds these as a separate data set.
The nature of data set [12]: The drug is tested on Z-017 corresponding to mouse gut metagenome with ENA study accession number: PRJEB37062 and ENA sample accession number: ERS12561816 for biotransformation under anaerobic condition. The drug concentrations were measured over 9 timepoints collected between 0 and 24 hours of incubation by liquid-chromatography-coupled mass spectrometry (LC–MS). The following applies: 2 µM.

Data set [13] in a line: The drug is tested on Z-019 corresponding to rat gut metagenome with ENA study accession number: PRJEB37062 and ENA sample accession number: ERS12561818 for biotransformation under anaerobic condition. The drug concentrations were measured over 9 timepoints collected between 0 and 24 hours of incubation by liquid-chromatography-coupled mass spectrometry (LC–MS). The following applies: 2 µM.

For data set [14] the following is noted: human gut metagenome, 24 h, 2 µM. This is another data set of the same source.
Data set [15] in a line: The drug is tested on WLS-098 corresponding to human gut metagenome with ENA study accession number: PRJEB37062 and ENA sample accession number: ERS12561754 for biotransformation under anaerobic condition. The drug concentrations were measured over 9 timepoints collected between 0 and 24 hours of incubation by liquid-chromatography-coupled mass spectrometry (LC–MS). The note with it: 2 µM.

Data set [16] in a line: The drug is tested on WLS-350 corresponding to human gut metagenome with ENA study accession number: PRJEB37062 and ENA sample accession number: ERS12561789 for biotransformation under anaerobic condition. The drug concentrations were measured over 9 timepoints collected between 0 and 24 hours of incubation by liquid-chromatography-coupled mass spectrometry (LC–MS). The following applies: 2 µM.

The conditions of data set [17]: human gut metagenome, 24 h, 2 µM. The source holds these as a separate data set.
Data set [18] can be described thus: The drug is tested on WLS-052 corresponding to human gut metagenome with ENA study accession number: PRJEB37062 and ENA sample accession number: ERS12561747 for biotransformation under anaerobic condition. The drug concentrations were measured over 9 timepoints collected between 0 and 24 hours of incubation by liquid-chromatography-coupled mass spectrometry (LC–MS). The following applies: 2 µM.

The conditions of data set [19]: human gut metagenome, 24 h, 2 µM. This is another data set of the same source.
A short description of data set [20]: The drug is tested on WLS-010 corresponding to human gut metagenome with ENA study accession number: PRJEB37062 and ENA sample accession number: ERS12561743 for biotransformation under anaerobic condition. The drug concentrations were measured over 9 timepoints collected between 0 and 24 hours of incubation by liquid-chromatography-coupled mass spectrometry (LC–MS). The note with it: 2 µM.
Also: call rule not given here.

Regarding `CN1CCC(OC(c2ccccc2)c2ccccc2)CC1`, the “Bacterial Biotransformation” value in data set [1], in data set [2], in data set [3], in [4], in data set [5] and in data set [6] was “Compound NOT metabolized” throughout. Besides, the “Bacterial Biotransformation” value in data set [7] is reported as “Compound NOT metabolized”; in [8], “Compound metabolized”; in [9], “Compound metabolized”; in data set [10] it was “Compound NOT metabolized”; in data set [11] it was “Compound NOT metabolized”; in [12], “Compound NOT metabolized”. The “Bacterial Biotransformation” value in [13] is “Compound NOT metabolized”; in data set [14], “Compound metabolized”; in [15] it was “Compound metabolized”; in data set [16] it was “Compound NOT metabolized”; in data set [17], “Compound metabolized”; in data set [18] it was “Compound NOT metabolized”. The “Bacterial Biotransformation” value in data set [19] and in [20] was “Compound NOT metabolized” throughout.
On to `CC1=C(CC(=O)O)c2cc(F)ccc2/C1=C\c1ccc([S+](C)[O-])cc1` (stereo not drawn), for which the “Bacterial Biotransformation” value in [1] is on record as “Compound metabolized”; in [2], “Compound NOT metabolized”; in [3], “Compound metabolized”; in data set [4], “Compound NOT metabolized”; in data set [5], “Compound NOT metabolized”; in data set [6], “Compound NOT metabolized”. Also, the “Bacterial Biotransformation” value in [7] is on record as “Compound NOT metabolized”; in [8], “Compound metabolized”; in data set [9] it was “Compound metabolized”; in data set [10], “Compound metabolized”; in [11] it was “Compound metabolized”; in [12], “Compound NOT metabolized”. In addition, the “Bacterial Biotransformation” value in [13] is given as “Compound NOT metabolized”; in [14], “Compound NOT metabolized”; in data set [15], “Compound metabolized”; in [16] it was “Compound metabolized”; in [17] it was “Compound metabolized”; in data set [18], “Compound metabolized”. Besides, the “Bacterial Biotransformation” value in data set [20] is “Compound metabolized”.
On to `CCOC(=O)[C@H](CCc1ccccc1)N[C@@H](C)C(=O)N1Cc2ccccc2C[C@H]1C(=O)O`, for which the “Bacterial Biotransformation” value in [1] was “Compound metabolized”; in data set [2], “Compound NOT metabolized”; in data set [3], “Compound metabolized”; in [4], “Compound NOT metabolized”; in data set [5], “Compound NOT metabolized”; in [6] it was “Compound NOT metabolized”. In addition, the “Bacterial Biotransformation” value in data set [7] is “Compound NOT metabolized”; in [8], “Compound metabolized”; in data set [9], “Compound metabolized”; in data set [10] it was “Compound metabolized”; in data set [11] it was “Compound NOT metabolized”; in data set [12], “Compound NOT metabolized”. For the same molecule, the “Bacterial Biotransformation” value in data set [13] is “Compound NOT metabolized”; in [14], “Compound metabolized”; in [15], “Compound metabolized”; in [16], “Compound NOT metabolized”; in data set [17], “Compound metabolized”; in data set [18], “Compound metabolized”. Besides, the “Bacterial Biotransformation” value in [19] and in [20] was “Compound metabolized” throughout.
Turning to `COc1ccc(/C=C/C(=O)Nc2ccccc2C(=O)O)cc1OC`, the “Bacterial Biotransformation” value was “Compound metabolized” in data set [1]; “Compound NOT metabolized” in [2]; “Compound NOT metabolized” in data set [3]; “Compound metabolized” in data set [4]; “Compound NOT metabolized” in [5]; “Compound metabolized” in [6]. Moreover, the “Bacterial Biotransformation” value in [7] is given as “Compound metabolized”; in data set [8], “Compound NOT metabolized”; in data set [9], “Compound NOT metabolized”; in data set [10], “Compound metabolized”; in [11] it was “Compound NOT metabolized”; in data set [12] it was “Compound NOT metabolized”. Further, the “Bacterial Biotransformation” value was “Compound NOT metabolized” in data set [13]; “Compound metabolized” in data set [14]; “Compound metabolized” in [15]; “Compound NOT metabolized” in data set [16]; “Compound NOT metabolized” in data set [17]; “Compound metabolized” in data set [18]. The “Bacterial Biotransformation” value in [19] was “Compound NOT metabolized”; in [20], “Compound metabolized”.
Take `CCN1CCCC1CNC(=O)c1cc(S(=O)(=O)CC)c(N)cc1OC` (stereo not drawn) [AMISULPRIDE]: the “Bacterial Biotransformation” value in data set [1], in data set [2], in [3], in data set [4], in data set [5] and in data set [6] was “Compound NOT metabolized” in each case. Also, the “Bacterial Biotransformation” value in data set [7] is recorded as “Compound NOT metabolized”; in data set [8], “Compound metabolized”; in data set [9] it was “Compound NOT metabolized”; in data set [10] it was “Compound NOT metabolized”; in [11] it was “Compound NOT metabolized”; in [12], “Compound NOT metabolized”. For the same molecule, the “Bacterial Biotransformation” value in data set [13] is recorded as “Compound NOT metabolized”; in data set [14], “Compound metabolized”; in data set [15], “Compound metabolized”; in data set [16], “Compound NOT metabolized”; in [17] it was “Compound NOT metabolized”; in [18] it was “Compound NOT metabolized”. For the same molecule, the “Bacterial Biotransformation” value in data set [19] and in data set [20] was “Compound NOT metabolized” each time.
As for `C[C@]12C=CC(=O)C=C1CC[C@@H]1[C@@H]2C(=O)C[C@@]2(C)[C@H]1CC[C@]2(O)C(=O)CO` [PREDNISONE], the “Bacterial Biotransformation” value is on record as “Compound metabolized” in data set [1]; “Compound NOT metabolized” in data set [2]; “Compound metabolized” in data set [3]; “Compound metabolized” in data set [4]; “Compound NOT metabolized” in [5]; “Compound NOT metabolized” in [6]. Also, the “Bacterial Biotransformation” value in data set [7], in [8], in [9], in data set [10], in [11] and in [12] was “Compound metabolized” each time. The “Bacterial Biotransformation” value in [13] is “Compound NOT metabolized”; in [14], “Compound metabolized”; in data set [15] it was “Compound metabolized”; in data set [16] it was “Compound metabolized”; in data set [17] it was “Compound metabolized”; in [18] it was “Compound metabolized”. Further, in data set [20], the “Bacterial Biotransformation” value is on record as “Compound metabolized”.
